Where two headings read alike, the source gives them in different places.
Assays:
Assay type in all cases: in vivo
[1] = tested on: corn (Zea mays); test: Test A pre-/postemergence greenhouse herbicide test; conditions: Zea mays, 240 h, 0 to 100 scale (0 no effect, 100 complete control), approx. 10 d; for Corn plant response rating (crop injury, 0 = no effect, 100 = complete kill) at 125 g/ha: 125 g ai/ha; for Corn plant response rating (crop injury, 0 = no effect, 100 = complete kill) at 500 g/ha: 500 g ai/ha
Method in brief: (§1)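 Injury was scored visually on a 0–100 scale (100 = complete control) about 10 d after spraying, relative to untreated plants. Compounds were formulated in solvent plus surfactant and applied as soil spray preemergence or to 2–10 cm, one- to two-leaf seedlings postemergence.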

[2] = tested on: barnyardgrass (Echinochloa crus-galli); test: as above; conditions: Echinochloa crus-galli, 240 h, 0 to 100 scale (0 no effect, 100 complete control), approx. 10 d, read-out: Plant response rating, Barnyardgrass; for pest or weed control at 125 g/ha: 125 g ai/ha; for pest or weed control at 500 g/ha: 500 g ai/ha
Method in brief: as §1

[3] = tested on: pigweed (Amaranthus retroflexus); test: as above; conditions: Amaranthus retroflexus, 240 h, 0 to 100 scale (0 no effect, 100 complete control), approx. 10 d, read-out: Plant response rating, Pigweed; for pest or weed control at 125 g/ha: 125 g ai/ha; for pest or weed control at 500 g/ha: 500 g ai/ha
Method in brief: as §1

[4] = tested on: morningglory (Ipomoea coccinea); test: Test C pre-/postemergence greenhouse herbicide test; conditions: Preemergence; for Plant response rating: Morningglory; for Plant response rating, Morningglory: visual rating on scale 0 (no effect) to 100 (complete control), 13 to 15 d
Method in brief: (§2)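 Plant response is scored on a 0–100 scale, where 100 means complete control, by visual comparison with controls 13 to 15 d after greenhouse treatment. Applications are made pre- and postemergence using a surfactant-containing, non-phytotoxic solvent formulation.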

[5] = tested on: wheat (winter wheat, Triticum aestivum); test: as above; conditions: Preemergence; for Plant response rating, Wheat: visual rating on scale 0 (no effect) to 100 (complete control), 13 to 15 d; for plant injury at 62 g/ha: 62 g ai/ha
Method in brief: as §2

[6] = tested on: blackgrass (Alopecurus myosuroides); test: as above; conditions: Preemergence; for pest or weed control at 31 g/ha: 31 g ai/ha; for pest or weed control at 62 g/ha: 62 g ai/ha; for Plant response rating, Blackgrass: visual rating on scale 0 (no effect) to 100 (complete control), 13 to 15 d
Method in brief: as §2

[7] = tested on: ragweed (common ragweed, Ambrosia elatior); test: as above; conditions: Preemergence; for pest or weed control at 31 g/ha: 31 g ai/ha; for pest or weed control at 62 g/ha: 62 g ai/ha; for Plant response rating, Ragweed: visual rating on scale 0 (no effect) to 100 (complete control), 13 to 15 d
Method in brief: as §2

[8] = tested on: pigweed (Amaranthus retroflexus); test: as above; conditions: Preemergence; for pest or weed control at 31 g/ha: 31 g ai/ha; for pest or weed control at 62 g/ha: 62 g ai/ha; for Plant response rating, Pigweed: visual rating on scale 0 (no effect) to 100 (complete control), 13 to 15 d
Method in brief: as §2

[9] = tested on: johnsongrass (Sorghum halepense); test: as above; conditions: Preemergence; for Plant response rating, Johnsongrass: visual rating on scale 0 (no effect) to 100 (complete control), 13 to 15 d; for pest or weed control at 31 g/ha: 31 g ai/ha; for pest or weed control at 62 g/ha: 62 g ai/ha
Method in brief: as §2

[10] = Triticum aestivum, pre-emergence, Wheat, read-out: Plant response rating
[11] = Alopecurus myosuroides, pre-emergence, Blackgrass, read-out: Plant response rating
[12] = Ambrosia artemisiifolia, pre-emergence, Ragweed, read-out: Plant response rating
[13] = Amaranthus retroflexus, pre-emergence, Pigweed, read-out: Plant response rating
[14] = Sorghum halepense, pre-emergence, Johnsongrass, read-out: Plant response rating

SMILES	Corn plant response rating (crop injury, 0 = no effect, 100 = complete kill) at 125 g/ha ([1]; post-emergence, Postemergence) [%]	Corn plant response rating (crop injury, 0 = no effect, 100 = complete kill) at 500 g/ha ([1]; post-emergence, Postemergence) [%]	Corn plant response rating (crop injury, 0 = no effect, 100 = complete kill) at 125 g/ha ([1]; pre-emergence, Preemergence) [%]	Corn plant response rating (crop injury, 0 = no effect, 100 = complete kill) at 500 g/ha ([1]; pre-emergence, Preemergence) [%]	pest or weed control at 125 g/ha ([2]; post-emergence, Postemergence) [%]	pest or weed control at 500 g/ha ([2]; post-emergence, Postemergence) [%]	pest or weed control at 125 g/ha ([2]; pre-emergence, Preemergence) [%]	pest or weed control at 500 g/ha ([2]; pre-emergence, Preemergence) [%]	pest or weed control at 125 g/ha ([3]; post-emergence, Postemergence) [%]	pest or weed control at 500 g/ha ([3]; post-emergence, Postemergence) [%]	pest or weed control at 125 g/ha ([3]; pre-emergence, Preemergence) [%]	pest or weed control at 500 g/ha ([3]; pre-emergence, Preemergence) [%]	Plant response rating ([4]; 31 g ai/ha)	Plant response rating ([4]; 62 g ai/ha)	plant injury at 62 g/ha [5, 10] [%]	pest or weed control at 31 g/ha [6, 11] [%]	pest or weed control at 62 g/ha [6, 11] [%]	pest or weed control at 31 g/ha [7, 12] [%]	pest or weed control at 62 g/ha [7, 12] [%]	pest or weed control at 31 g/ha [8, 13] [%]	further results
Cc1cc(=O)n(-c2ccc(F)cc2)nc1Cn1ccc(C(F)(F)F)n1 [Compound 3, 2-(4-fluorophenyl)-5-methyl-6-[[3-(trifluoromethyl)-1H-pyrazol-1-yl]methyl]-3(2H)-pyridazinone]	0	20	0	0	0	10	0	20	60	70	20	80	–	–	–	–	–	–	–	–	–
Cc1cc(=O)n(-c2ccc(C(F)(F)F)cc2)nc1Oc1ccnc(C(F)(F)F)c1 [Compound 5, 5-methyl-2-[4-(trifluoromethyl)phenyl]-6-[[2-(trifluoromethyl)-4-pyridinyl]oxy]-3(2H)-pyridazinone]	20	30	0	10	20	70	40	90	100	100	100	100	–	–	–	–	–	–	–	–	–
CCOc1cc(=O)n(-c2ccc(F)cc2)nc1C(=O)c1ccnc(C(F)(F)F)c1 [Compound 22, 5-ethoxy-2-(4-fluorophenyl)-6-[[2-(trifluoromethyl)-4-pyridinyl]carbonyl]-3(2H)-pyridazinone]	50	90	0	20	20	100	20	80	100	100	100	100	–	–	–	–	–	–	–	–	–
CCOc1cc(=O)n(-c2ccc(F)cc2)nc1C(O)c1ccnc(C(F)(F)F)c1 (stereo not shown) [Compound 23, 5-ethoxy-2-(4-fluorophenyl)-6-[hydroxy[2-(trifluoromethyl)-4-pyridinyl]methyl]-3(2H)-pyridazinone]	50	90	0	20	20	100	20	100	100	100	100	100	55	98	10	50	5	60	55	100	Plant response rating, Morningglory ([4]; 8 g ai/ha): 10; Plant response rating, Morningglory ([4]; 16 g ai/ha): 20; Plant response rating, Wheat ([5]; 8 g ai/ha): 0; Plant response rating, Wheat ([5]; 16 g ai/ha): 0; Plant response rating, Blackgrass ([6]; 8 g ai/ha): 0; Plant response rating, Blackgrass ([6]; 16 g ai/ha): 0; Plant response rating, Ragweed ([7]; 8 g ai/ha): 0; Plant response rating, Ragweed ([7]; 16 g ai/ha): 60; pest or weed control at 62 g/ha [8, 13]: 100%; Plant response rating, Pigweed ([8]; 8 g ai/ha): 98; Plant response rating, Pigweed ([8]; 16 g ai/ha): 100; Plant response rating, Johnsongrass ([9]; 8 g ai/ha): 0; Plant response rating, Johnsongrass ([9]; 16 g ai/ha): 5; pest or weed control at 31 g/ha [9, 14]: 5%; pest or weed control at 62 g/ha [9, 14]: 10%
CCOc1cc(=O)n(-c2ccc(F)cc2)nc1Cc1ccnc(C(F)(F)F)c1 [Compound 25, 5-ethoxy-2-(4-fluorophenyl)-6-[[2-(trifluoromethyl)-4-pyridinyl]methyl]-3 (2H)-pyridazinone]	70	80	50	50	80	90	90	100	100	100	100	100	95	95	40	40	85	60	85	100	Plant response rating ([4]; 125 g ai/ha): 100; Plant response rating ([4]; 250 g ai/ha): 98; plant injury at 125 g/ha ([5]; Triticum aestivum, pre-emergence, Wheat, 125 g ai/ha, read-out: Plant response rating): 50%; plant injury at 250 g/ha ([5]; Triticum aestivum, pre-emergence, Wheat, 250 g ai/ha, read-out: Plant response rating): 70%; pest or weed control at 125 g/ha ([6]; Alopecurus myosuroides, pre-emergence, Blackgrass, 125 g ai/ha, read-out: Plant response rating): 90%; pest or weed control at 250 g/ha ([6]; Alopecurus myosuroides, pre-emergence, Blackgrass, 250 g ai/ha, read-out: Plant response rating): 90%; pest or weed control at 125 g/ha ([7]; Ambrosia artemisiifolia, pre-emergence, Ragweed, 125 g ai/ha, read-out: Plant response rating): 65%; pest or weed control at 250 g/ha ([7]; Ambrosia artemisiifolia, pre-emergence, Ragweed, 250 g ai/ha, read-out: Plant response rating): 95%; pest or weed control at 62 g/ha [8, 13]: 100%; pest or weed control at 125 g/ha ([8]; Amaranthus retroflexus, pre-emergence, Pigweed, 125 g ai/ha, read-out: Plant response rating): 98%; pest or weed control at 250 g/ha ([8]; Amaranthus retroflexus, pre-emergence, Pigweed, 250 g ai/ha, read-out: Plant response rating): 100%; pest or weed control at 31 g/ha [9, 14]: 65%; pest or weed control at 62 g/ha [9, 14]: 75%; pest or weed control at 125 g/ha ([9]; Sorghum halepense, pre-emergence, Johnsongrass, 125 g ai/ha, read-out: Plant response rating): 90%; pest or weed control at 250 g/ha ([9]; Sorghum halepense, pre-emergence, Johnsongrass, 250 g ai/ha, read-out: Plant response rating): 98%

Reference: patent US10202361B2, “Pyridazinones as herbicides” (E I DU PONT DE NEMOURS AND COMPANY, priority 2014, dated 2019)
